In US12503461B2, “Pesticidally active heterocyclic derivatives with sulfur and sulfoximine containing substituents” (SYNGENTA CROP PROTECTION AG, priority 2019, dated 2025):

Tests used:
Format in all cases: in vivo
[1] = system: Diabrotica balteata (Corn Root Worm); assay: Example B1: Diabrotica balteata (corn root worm), sprayed maize sprouts on agar, L2 larvae; details: 96 h, application rate of 200 ppm, 4 days after infestation, in comparison to untreated samples, read-out: effect in at least one of the two categories (mortality or growth inhibition)
Experimental: Example B1: Diabrotica balteata (Corn Root Worm
Maize sprouts placed onto an agar layer in 24-well microtiter plates were treated with aqueous test solutions prepared from 10′000 ppm DMSO stock solutions by spraying. After drying, the plates were infested with L2 larvae (6 to 10 per well). The samples were assessed for mortality and growth inhibition in comparison to untreated samples 4 days after infestation.

[2] = system: Frankliniella occidentalis (Western Flower Thrips); assay: Example B3: Frankliniella occidentalis (western flower thrips), sprayed sunflower leaf discs; details: foliar, 168 h, application rate of 200 ppm, population of mixed ages, 7 days after infestation
Experimental: Example B3: Frankliniella occidentalis (Western Flower Thrips
Sunflower leaf discs were placed on agar in 24-well microtiter plates and sprayed with aqueous test solutions prepared from […] stock solutions. After drying the leaf discs were infested with a Frankliniella population of mixed ages. The samples were assessed for mortality 7 days after infestation.

[3] = system: Plutella xylostella (Diamond Back Moth); assay: Example B4: Plutella xylostella (diamond back moth), treated artificial diet, eggs; details: 192 h, application rate of 200 ppm, 8 days after infestation, in comparison to untreated samples, read-out: effect in at least one of the two categories (mortality or growth inhibition)
Experimental: Example B4: Plutella xylostella (Diamond Back Moth
24-well microtiter plates with artificial diet were treated with aqueous test solutions prepared from 10′000 ppm DMSO stock solutions by pipetting. After drying, Plutella eggs were pipetted through a plastic stencil onto a gel blotting paper and the plate was closed with it. The samples were assessed for mortality and growth inhibition in comparison to untreated samples 8 days after infestation.

[4] = system: Myzus persicae (Green Peach Aphid); assay: Example B5: Myzus persicae (green peach aphid), feeding/contact activity, sprayed sunflower leaf discs; details: foliar, 144 h, application rate of 200 ppm, aphid population of mixed ages, 6 days after infestation
Experimental: Example B5: Myzus persicae (Green Peach Aphid). Feeding/Contact Activity
Sunflower leaf discs were placed onto agar in a 24-well microtiter plate and sprayed with aqueous test solutions prepared from 10′000 ppm DMSO stock solutions. After drying, the leaf discs were infested with an aphid population of mixed ages. The samples were assessed for mortality 6 days after infestation.

[5] = system: Bemisia tabaci (Cotton White Fly); assay: Example B6: Bemisia tabaci (cotton white fly), feeding/contact activity, sprayed cotton leaf discs; details: foliar, 144 h, application rate of 200 ppm, adult white flies, 6 days after incubation
Experimental: Example B6: Bemisia tabaci (Cotton White Fly). Feeding/Contact Activity
Cotton leaf discs were placed on agar in 24-well microtiter plates and sprayed with aqueous test solutions prepared from 10′000 ppm DMSO stock solutions. After drying the leaf discs were infested with adult white flies. The samples were checked for mortality 6 days after incubation.

[6] = system: Spodoptera littoralis (Egyptian Cotton Leaf Worm); assay: Example B7: Spodoptera littoralis (Egyptian cotton leaf worm), sprayed cotton leaf discs, L1 larvae; details: foliar, 72 h, application rate of 200 ppm, 3 days after infestation, in comparison to untreated samples
Procedure, shortened: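 Cotton leaf discs on agar were sprayed with aqueous test solutions made from 10′000 ppm DMSO stocks, dried, and infested with five L1 larvae. Mortality, anti-feeding and growth inhibition were scored against untreated samples 3 days after infestation; control means any category exceeds the untreated sample.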

[7] = system: Chilo suppressalis (Striped Rice Stemborer); assay: Example B9: Chilo suppressalis (striped rice stemborer), treated artificial diet, L2 larvae; details: 144 h, application rate of 200 ppm, 6 days after infestation, in comparison to untreated samples, read-out: control (mortality, anti-feeding effect, or growth inhibition)
Experimental: Example B9: Chilo suppressalis (Striped Rice Stemborer
24-well microtiter plates with artificial diet were treated with aqueous test solutions prepared from 10′000 ppm DMSO stock solutions by pipetting. After drying, the plates were infested with L2 larvae (6-8 per well). The samples were assessed for mortality, anti-feeding effect, and growth inhibition in comparison to untreated samples 6 days after infestation. Control of Chilo suppressalis by a test sample is given when at least one of the categories mortality, anti-feedant effect, and growth inhibition is higher than the untreated sample.

CCS(=O)(=O)c1cc(C2(C#N)CC2)cnc1-c1nc2cc(S(=O)(=NCC(F)(F)F)C(F)(F)F)cnc2n1C (stereo not drawn) [P57, 1-[5-ethylsulfonyl-6-[3-methyl-6-[N-(2,2,2-trifluoroethyl)-S-(trifluoromethyl)sulfonimidoyl]imidazo[4,5-b]pyridin-2-yl]-3-pyridyl]cyclopropanecarbonitrile]
≥ 80%: percent effect (mortality or growth inhibition) at 200 ppm [1] | mortality at 200 ppm [2] | percent effect (mortality or growth inhibition) at 200 ppm [3] | mortality at 200 ppm [4] | mortality at 200 ppm [5] | percent control (mortality, anti-feeding effect or growth inhibition) at 200 ppm [6] | percent control (mortality, anti-feedant effect or growth inhibition) at 200 ppm [7]
